According to PMC13192270, “RhlR quorum-sensing receptor ligand sensitivity regulates the differential expression of phenazine genes in Pseudomonas aeruginosa” (Journal of Bacteriology, 2026):

Legend:
[1] = test system: pyocyanin production; details: cited from earlier work
[2] = test system: ΔrhlI strain expressing WT RhlR; test: RNA-seq gene expression; format: cell-based, Pseudomonas aeruginosa; parameters: opmD Expression value / mexI Expression value / mexH Expression value / mexG Expression value / lasB Expression value / rhlA Expression value / rhlB Expression value / rhlR Expression value / lecB Expression value / fhp Expression value / chiC Expression value / hcnA Expression value / mvfR Expression value / katB Expression value / norC Expression value / norB Expression value / katA Expression value: unit not given here; details: 2 µM C4HSL
Experimental: To determine the effects of hypo- and hypersensitivity to C4HSL on RhlR-dependent transcription activation in P. aeruginosa, we performed RNA-seq on ΔrhlI strains expressing WT RhlR, RhlR T58L, and RhlR A44M in the presence of 2 µM C4HSL. We chose this approach to better control the levels of C4HSL across samples. All gene expression analyses were done relative to a ΔrhlI strain without exogenous supplementation of AHL. Thus, we examined the total increase in C4HSL-dependent gene regulation. We observed increased rhlA RNA levels in strains expressing WT RhlR and the RhlR T58L variant compared to ΔrhlI without C4HSL or a strain expressing the RhlR A44M variant (Table 2; Table S1). […] To corroborate our RNA-seq data, we built an rhlA promoter fusion to mScarlet and assayed reporter levels in the same genetic backgrounds as our transcriptomic experiment (Fig. S7D). Strains expressing hypersensitive RhlR variants produced similar levels of fluorescent signal relative to the WT strain, while a strain expressing a hyposensitive RhlR variant had diminished levels of fluorescent reporter (Fig. S7D).
A total of […] of overnight cultures was back diluted 1:100 in 20 mL of fresh LB media and incubated for 5 h at 37°C with shaking. Cells were harvested by centrifugation, and pellets were frozen until RNA extraction. RNA was extracted using the Invitrogen PureLink RNA Mini Kit. Pellets were resuspended in 100 µL lysozyme solution containing 10 mM Tris-HCl pH 8.0, 0.1 mM EDTA, and 1 mg/mL lysozyme. Five microliters of 1% SDS was added, and the solution was mixed with a vortex and incubated at room temperature for 5 min. A total of 350 µL lysis buffer (Invitrogen) was added with 10 µL 2-mercaptoethanol for each 1 mL of lysis buffer and vortexed. Cells were lysed by bead beating (BioSpec 0.1 MM Zirconia/Silica Beads) for two rounds of 50 s. Lysed cells were transferred to fresh microcentrifuge tubes with 250 µL of 100% ethanol and mixed with a vortex. Samples were spun in spin cartridges (Invitrogen) at 12,000 × g for 15 s at room temperature, and the flow-through was discarded. A total of 700 µL Wash Buffer I (Invitrogen) was added and spun at 12,000 × g for 15 s at room temperature, and the flow-through was discarded. A total of 500 µL Wash Buffer II (Invitrogen) with ethanol was added and centrifuged for 12,000 × g for 15 s at room temperature; the flow-through was discarded, and RNA samples were washed again. Cells were spun at 12,000 × g for 1 min at room temperature to dry the membrane with the bound RNA. A total of 50 µL RNAse-free water was added to the center of the spin cartridge, incubated at room temperature for 1 min, and centrifuged for 2 min at ≥12,000 × g at room temperature. Extracted RNA was then frozen at −80°C until further use.
Bulk RNA was sent to SeqCenter (Pittsburgh, PA) where it was processed for paired-end Illumina sequencing via rRNA depletion using Ribo-Zero Plus (Illumina). Fastq files generated by SeqCenter were processed using Rockhopper with default settings ([61][–][63]). Briefly, fastq files were aligned to the genome of Pseudomonas aeruginosa UCBPP-PA14. The reads were subsequently normalized using upper-quartile normalization, and transcript abundance was determined by reads per kilobase per million mapped reads. Differential gene expression analysis was conducted using a negative binomial distribution model, outputting a P-value for each transcript. The P-values were then corrected for false discovery using the Benjamini-Hochberg procedure, resulting in the q-values reported here (Table S2). SignalMap v2.0 (NimbleGen Systems) was used to visualize read counts for phzABCDEFG1/2, phzH, phzM, and phzS (Fig. 5). Aligned sequences generated in Rockhopper were converted to GFF files, and genes of interest were isolated into unique GFF files ([37]).

## CCCC(=O)N[C@H]1CCOC1=O [C4HSL, N-butyryl-L-homoserine lactone]
[1]
  C4HSL concentration above which pyocyanin production is lost: > 5 µM
  C4HSL concentration below which pyocyanin production is lost: < 500 nM
[2]
  chiC Expression value: 3,525,171.5
  fhp Expression value: 641,438
  hcnA Expression value: 44,841
  katA Expression value: 14,093,439.5
  katB Expression value: 3,028,118.5
  lasB Expression value: 19,914,902.5
  lecB Expression value: 366,190
  mexG Expression value: 516,840.5
  mexH Expression value: 903,148
  mexI Expression value: 920,093.5
  mvfR Expression value: 301,183
  norB Expression value: 6,989,112.5
  norC Expression value: 3,120,586.5
  opmD Expression value: 631,843.5
  phnA Expression value: 1,160,599.5
  phnB Expression value: 350,722
  phzA1 Expression value: 15,501
  phzA2 Expression value: 238,645
  phzB1 Expression value: 218,602.5
  phzB2 Expression value: 4,517,504
  phzC1 Expression value: 655,136.5
  phzC2 Expression value: 4,730,067
  phzD1 Expression value: 2,329,509
  phzD2 Expression value: 2,063,245.5
  phzE1 Expression value: 4,232,986.5
  phzE2 Expression value: 3,213,651.5
  phzF1 Expression value: 1,981,300.5
  phzF2 Expression value: 1,982,482
  phzG1 Expression value: 560,110.5
  phzG2 Expression value: 2,035,315
  phzM Expression value: 184,602
  phzS Expression value: 726,300.5
  pqsA Expression value: 1,089,687.5
  pqsB Expression value: 2,286,881.5
  pqsC Expression value: 2,211,818.5
  pqsD Expression value: 2,409,895
  pqsE Expression value: 1,210,331
  rhlA Expression value: 1,118,561.5
  rhlB Expression value: 1,056,112.5
  rhlR Expression value: 1,082,023
[2]; vs ΔrhlI without AHL
  chiC Log2fold change: 4.67
  fhp Log2fold change: 6.375
  hcnA Log2fold change: 0.4821
  katA Log2fold change: 2.183
  katB Log2fold change: 7.942
  lasB Log2fold change: 2.638
  lecB Log2fold change: 0.03694
  mexG Log2fold change: 6.993
  mexH Log2fold change: 6.553
  mexI Log2fold change: 5.716
  mvfR Log2fold change: 0.3556
  norB Log2fold change: 7.423
  norC Log2fold change: 7.283
  opmD Log2fold change: 6.473
  phnA Log2fold change: −0.9963
  phnB Log2fold change: −0.7095
  phzA1 Log2fold change: −0.9521
  phzA2 Log2fold change: 4.504
  phzB1 Log2fold change: −0.627
  phzB2 Log2fold change: 4.419
  phzC1 Log2fold change: 1.576
  phzC2 Log2fold change: 4.692
  phzD1 Log2fold change: 3.417
  phzD2 Log2fold change: 3.452
  phzE1 Log2fold change: 3.384
  phzE2 Log2fold change: 3.413
  phzF1 Log2fold change: 3.113
  phzF2 Log2fold change: 3.107
  phzG1 Log2fold change: 1.459
  phzG2 Log2fold change: 4.193
  phzM Log2fold change: −0.9094
  phzS Log2fold change: −0.04329
  pqsA Log2fold change: −1.279
  pqsB Log2fold change: −0.7204
  pqsC Log2fold change: −0.7931
  pqsD Log2fold change: −0.874
  pqsE Log2fold change: −1.056
  rhlA Log2fold change: 2.147
  rhlB Log2fold change: 2.998
  rhlR Log2fold change: 0.762
